What was measured:
[1] = system: myeloperoxidase (MPO); design: method as in ref 32, 33 = [32]; doi:10.1016/j.arabjc.2016.12.026; 32. Cabrera Pérez L.C. Gutiérrez Sánchez M. Mendieta Wejebe J.E. Hernández Rodríguez M. Fragoso Vázquez M.J. Salazar J.R. Correa Basurto J. Padilla Martínez I.I. Rosales Hernández M.C. Novel 5-aminosa || [33]; 33. Correa Basurto J. Rosales Hernández M.C. Mendieta Wejebe J.E. Trujillo Ferrara J.G. Padilla Martínez I.I. Ramírez Durán L.A. Alemán González Duhart D. Síntesis de un derivado del ácido 5-aminosali; settings: o-dianisidine method; cited from earlier work
[2] = Stability of stock solutions; type: physicochemical; settings: 1000 μg/mL in acetonitrile-methanol (50:50, v/v), 2–4 °C
Procedure: Six stock solutions at 1000 μg/mL of C1 were prepared by dissolving 10 mg in a mixture of acetonitrile-methanol (50:50, v/v), adjusting the volume in a volumetric flask of 10 mL and storing the final solution at 2–4 °C. […] Calibration standards were prepared daily from the stock solution at concentrations of 0.1, 0.5, 1, 5, 10, 50, and 100 μg/mL, and calibration curves were constructed in triplicate by plotting known concentrations of the standard versus the detector response area (File S4).

[3] = Blood/plasma partitioning (BP ratio); type: in vitro ADME, rats; settings: rat whole blood, 37 °C, 4 h
Procedure: Appropriate amounts of C1 stock solution at 10 mg/mL were spiked into whole blood to obtain samples (prepared in triplicate) at a final concentration of 1, 5, and 10 and 20 μg/mL (in a final volume of 600 μL), to be incubated at 37 °C for 4 h. Plasma was harvested from blood samples by centrifuging at 8000 rpm for 15 min, and then the concentration of C1 was established using the RP-HPLC method and interpolating the response area into a standard curve prepared with C1 and blank plasma. The BP ratio was calculated by dividing 5 and 10 µg/mL, respectively, by the concentration found in plasma separated from blood samples. The concentration of C1 in blood cells is assumed to be equal to its unbound concentration in plasma.

[4] = Plasma protein binding assay (ultrafiltration, RP-HPLC); type: in vitro ADME, Wistar rats; settings: rat plasma
Procedure: Different quantities of C1 stock solution at 10 mg/mL were spiked into 600 µL of freshly obtained blank rat plasma to give a final concentration of 1, 5, 10, and 20 µg/mL. The resulting samples were incubated at 37 °C for 4 h. After incubation, an aliquot of 100 µL was removed to determine the total concentration, and another aliquot of 500 µL was transferred to a 10 kD cut-off ultrafiltration device (Millipore Corporation, Burlington, MA, USA). Subsequently, samples were centrifuged at 2000× g and 37 °C for 2 h. The free drug concentration of C1 was measured by evaluating 100 µL of ultrafiltrate with RP-HPLC, interpolating the main areas of the samples into a standard curve constructed with known amounts of C1. The percentage of protein binding was calculated with the following formula (1). Protein binding ratio (%) = […](1)

[5] = Stability of C1 in rat plasma (RP-HPLC); type: in vitro ADME; settings: for Difference at 12 h (%) / Difference at 24 h (%) / Difference at 48 h (%): rat plasma
Procedure: C1 was quantified in a liquid chromatograph Agilent 1260 Infinity Series (Agilent Technologies, Palo Alto, CA, USA) equipped with a quaternary pump delivery system (G1311B), robotic autosampler (G1316A), column thermostat (G1316A), and a multi-wavelength UV detector (G1315C). The results were analyzed with OpenLab CDS EZChrom. Separation was performed on a Zorbax SB-Phenyl column (5 µm, 4.6 × 150 mm, Agilent Technologies, Palo Alto, CA, USA) and UV detection was carried out at 305 nm. The column temperature was maintained at 25 °C, and the injection volume was 10 μL. The mobile phase consisted of a mixture of (A) acetonitrile, (B) methanol, and (C) water at a ratio of 50% A, 10% B, and 40% C, at a flow rate of 1.0 mL/min. The total analysis time for each sample was 5.0 min when using an isocratic elution. It was not necessary to equilibrate between each injection.
In addition, the potential interference of heparin, ketamine, and xylazine was investigated. Method specificity was assessed by the values of peak identity and purity of C1. A peak purity angle that is less than the peak threshold angle is an indication of spectral homogeneity or purity of C1. Stability of C1 in plasma was evaluated in triplicate using the quality control samples at four concentrations. Samples were stored at 25 °C for 12, 24, and 48 h (short-term stability), and three freeze-thaw cycles at −20 to +25 °C for 12, 24, and 48 h. […] The concentration of C1 after each storage period was compared to the initial concentration, which was determined for freshly prepared samples [57, 59].

[6] = refrigeration (4 °C), 0.1 µg/mL
[7] = refrigeration (4 °C), 0.5 µg/mL
[8] = refrigeration (4 °C), 100 µg/mL
[9] = room temperature (25 °C), 0.1 µg/mL, difference to nominal concentration
[10] = room temperature (25 °C), 0.5 µg/mL
[11] = room temperature (25 °C), 10 µg/mL
[12] = room temperature (25 °C), 100 µg/mL
[13] = three freeze–thaw cycles (−20 to +25 °C), 0.1 µg/mL
[14] = three freeze–thaw cycles (−20 to +25 °C), 0.5 µg/mL
[15] = three freeze–thaw cycles (−20 to +25 °C), 10 µg/mL
[16] = three freeze–thaw cycles (−20 to +25 °C), 100 µg/mL

O=C(/C=C(/Br)C(=O)O)Nc1ccc(O)c(C(=O)O)c1 [Compound C1, 5-{[(2E)-3-bromo-3-carboxyprop-2-enoyl]amino}-2-hydroxybenzoic acid]
inhibition of myeloperoxidase (MPO) [1]: comparable to that of indomethacin | stability of stock solutions [2]: stable for three months | BP Ratio ± SD ([3]; 5 µg/mL): 0.54 ± 0.02 | BP Ratio ± SD ([3]; 10 µg/mL): 0.40 ± 0.01 | fraction unbound at 4 h, 1 µg/mL ([4]; Wistar, 1 µg/mL, read-out: Percentage of Unbound Fraction ± SD (%)): 0.963 ± 0.014 | fraction unbound at 4 h, 5 µg/mL ([4]; Wistar, 5 µg/mL, read-out: Percentage of Unbound Fraction ± SD (%)): 0.942 ± 0.024 | fraction unbound at 4 h, 10 µg/mL ([4]; Wistar, 10 µg/mL, read-out: Percentage of Unbound Fraction ± SD (%)): 0.934 ± 0.015 | fraction unbound at 4 h, 20 µg/mL ([4]; Wistar, 20 µg/mL, read-out: Percentage of Unbound Fraction ± SD (%)): 0.948 ± 0.023 | fraction unbound at 4 h ([4]; Wistar, 1 to 20 μg/mL): 0.934 to 0.963 | Percentage of Bound Fraction ± SD (%) ([4]; 1 µg/mL): 3.7 ± 1.1% | Percentage of Bound Fraction ± SD (%) ([4]; 5 µg/mL): 5.8 ± 2.4% | Percentage of Bound Fraction ± SD (%) ([4]; 10 µg/mL): 6.6 ± 1.5% | Percentage of Bound Fraction ± SD (%) ([4]; 20 µg/mL): 5.2 ± 2.3% | stability in rat plasma ([5]; 4 °C): up to 72 h at 4 °C | stability in rat plasma ([5]; 25 °C): stable in rat plasma stored up to 48 h at 25 °C | Difference at 12 h (%) [5, 6]: 5.1% | Difference at 24 h (%) [5, 6]: 14.0% | Difference at 48 h (%) [5, 6]: 4.3% | Difference at 12 h (%) [5, 7]: 4.0% | Difference at 24 h (%) [5, 7]: 3.6% | Difference at 48 h (%) [5, 7]: 5.3% | Difference at 12 h (%) ([5]; refrigeration (4 °C), 10 µg/mL): 10.1% | Difference at 24 h (%) ([5]; refrigeration (4 °C), 10 µg/mL): 13.1% | Difference at 48 h (%) ([5]; refrigeration (4 °C), 10 µg/mL): 9.3% | Difference at 12 h (%) [5, 8]: 1.2% | Difference at 24 h (%) [5, 8]: 0.2% | Difference at 48 h (%) [5, 8]: 5.2% | Difference at 12 h (%) [5, 9]: 10.7% | Difference at 24 h (%) [5, 9]: 3.2% | Difference at 48 h (%) [5, 9]: 3.8% | Difference at 12 h (%) [5, 10]: 3.2% | Difference at 24 h (%) [5, 10]: 7.8% | Difference at 48 h (%) [5, 10]: 4.1% | Difference at 12 h (%) [5, 11]: 9.5% | Difference at 24 h (%) [5, 11]: 6.5% | Difference at 48 h (%) [5, 11]: 3.7% | Difference at 12 h (%) [5, 12]: 0.5% | Difference at 24 h (%) [5, 12]: 6.5% | Difference at 48 h (%) [5, 12]: 5.4% | Difference at 12 h (%) [5, 13]: 5.1% | Difference at 24 h (%) [5, 13]: 1.76% | Difference at 48 h (%) [5, 13]: 3.4% | Difference at 12 h (%) [5, 14]: 0.1% | Difference at 24 h (%) [5, 14]: 0.3% | Difference at 48 h (%) [5, 14]: 1.0% | Difference at 12 h (%) [5, 15]: 0.7% | Difference at 24 h (%) [5, 15]: 1.2% | Difference at 48 h (%) [5, 15]: 3.2% | Difference at 12 h (%) [5, 16]: 0.1% | Difference at 24 h (%) [5, 16]: 0.6% | Difference at 48 h (%) [5, 16]: 2.0% | stability in rat plasma ([5]; three freeze–thaw cycles): stable before the three freeze–thaw cycles

Reference: publication PMC8617944, “Preclinical Pharmacokinetics and Acute Toxicity in Rats of 5-{[(2E)-3-Bromo-3-carboxyprop-2-enoyl]amino}-2-hydroxybenzoic Acid: A Novel 5-Aminosalicylic Acid Derivative with Potent Anti-Inflammatory Activity” (Molecules, 2021)
